In patent publication US7118895B2, “Process for producing aglycon by using diglycosidase and flavor-improved food containing the aglycon and converting agent to be used in the process” (Amano Enzyme Inc., priority 2000, dated 2006):

Columns and labels:
Crude diglycosidase = assay: Examination of substrate concentration in the conversion into isoflavone aglycons by diglycosidase using soybean materials; format: biochemical, Penicillium multicolor IAM7153;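 for Decomposition efficiency: ratio of each glycoside/aglycon within its isoflavone family: percent of the isoflavone family total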
Procedure, shortened: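 Reaction at 55° C, shaken, pH 4.0 (20 mM acetate), using crude diglycosidase from a 1.88 AU/mL enzyme solution on soy flour, soymilk, defatted soybean or soy protein concentrate at 2, 5, 10, 20 or 30% (w/v). Isoflavone aglycons quantified by HPLC of ethanol extracts at 0, 1, 3, 6 h.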

[1] = system: β-Glucosidase derived from A. niger; assay: Reactivity toward various isoflavone glycosides (HPLC); format: biochemical, Aspergillus niger; set-up: glucoside / aglycon: unit not given here; details: 55 °C, pH 4.0
Method: (§1) Diglycosidase was diluted with an acetate buffer of pH 4.0 to prepare a 0.75 AU/mL enzyme solution. As references, a similar operation was conducted using β-glucosidase (manufactured by Fluka) derived from Aspergillus niger, β-glucosidase (manufactured by Sigma) derived from almond, β-xylosidase derived from pectinase G (manufactured by Amano Enzyme Inc.). Each of purified products of isoflavone glycosides (glycitin, acetylglycitin, malonylglycitin, daidzin, acetyldaidzin, malonyldaidzin, genistin, acetylgenistin, malonylgenistin, all manufactured by Nacalai Tesque, Inc.) was dissolved in methanol to prepare each 2 mM substrate solution. The reaction was carried out by mixing 10 μL of a substrate solution, 200 μL of 20 mM acetate buffer (pH 4.0), and 40 μL of each purified enzyme solution at a total liquid volume of 250 μL. The reaction was carried out at 55° C. and isolation of an aglycon isoflavone from an isoflavone glycoside in the reaction mixture was detected by HLPC at 0, 1, 3, and 6 hours of the reaction.
(§2) To the reaction mixture was added 700 μL of ethanol, followed by stirring and ultrasonication. After centrifugation at 15,000 rpm and 4° C. for 10 minutes, the supernatant was filtered through a filter and then the filtrate was applied to HPLC.
(§3) The isoflavone glycoside and aglycon isoflavone contained in the filtrate was separated and detected by a high performance liquid chromatography (HPLC, Shimadzu CLASS LC-10 system) using TOSOH TSK gel ODS-80TM column (manufactured by Tosoh Corporation). […] The absorbance at 260 nm was detected by a UV detector (Shimadzu, SPD-10AV). Using purified products (manufactured by Nacalai Tesque, Inc.) of the above isoflavone glycosides and aglycon isoflavones, the isoflavone glycoside and aglycon isoflavone were quantitatively determined according to a calibration curve method. By the way, unless otherwise stated, the measuring conditions of HPLC herein mean those described in the example.

[2] = system: Diglycosidase derived from P. multicolor; assay: as above; format: biochemical, Penicillium multicolor; set-up: glucoside / aglycon: unit not given here; details: 55 °C, pH 4.0
Method: as §1, §2, §3

SMILES: CC(=O)OC[C@H]1O[C@@H](Oc2cc(O)c3c(=O)c(-c4ccc(O)cc4)coc3c2)[C@H](O)[C@@H](O)[C@@H]1O [acetylgenistin, 6″-O-acetylgenistin]
- Decomposition efficiency: ratio of each glycoside/aglycon within its isoflavone family (Crude diglycosidase; concentrated soybean protein, substrate concentration 2%, heat treatment of enzyme no, reaction time 0 h): 42.9%
- Decomposition efficiency: ratio of each glycoside/aglycon within its isoflavone family (Crude diglycosidase; concentrated soybean protein, substrate concentration 2%, heat treatment of enzyme no, reaction time 1 h): 20.0%
- Decomposition efficiency: ratio of each glycoside/aglycon within its isoflavone family (Crude diglycosidase; concentrated soybean protein, substrate concentration 2%, heat treatment of enzyme no, reaction time 3 h): 8.3%
- Decomposition efficiency: ratio of each glycoside/aglycon within its isoflavone family (Crude diglycosidase; concentrated soybean protein, substrate concentration 2%, heat treatment of enzyme no, reaction time 6 h): 3.3%
- Decomposition efficiency: ratio of each glycoside/aglycon within its isoflavone family (Crude diglycosidase; concentrated soybean protein, substrate concentration 2%, heat treatment of enzyme yes, reaction time 6 h): 41.3%
- Decomposition efficiency: ratio of each glycoside/aglycon within its isoflavone family (Crude diglycosidase; concentrated soybean protein, substrate concentration 5%, heat treatment of enzyme no, reaction time 0 h): 43.1%
- Decomposition efficiency: ratio of each glycoside/aglycon within its isoflavone family (Crude diglycosidase; concentrated soybean protein, substrate concentration 5%, heat treatment of enzyme no, reaction time 1 h): 36.4%
- Decomposition efficiency: ratio of each glycoside/aglycon within its isoflavone family (Crude diglycosidase; concentrated soybean protein, substrate concentration 5%, heat treatment of enzyme no, reaction time 3 h): 26.3%
- Decomposition efficiency: ratio of each glycoside/aglycon within its isoflavone family (Crude diglycosidase; concentrated soybean protein, substrate concentration 5%, heat treatment of enzyme no, reaction time 6 h): 17.8%
- Decomposition efficiency: ratio of each glycoside/aglycon within its isoflavone family (Crude diglycosidase; concentrated soybean protein, substrate concentration 5%, heat treatment of enzyme yes, reaction time 6 h): 41.7%
- Decomposition efficiency: ratio of each glycoside/aglycon within its isoflavone family (Crude diglycosidase; concentrated soybean protein, substrate concentration 10%, heat treatment of enzyme no, reaction time 0 h): 43.4%
- Decomposition efficiency: ratio of each glycoside/aglycon within its isoflavone family (Crude diglycosidase; concentrated soybean protein, substrate concentration 10%, heat treatment of enzyme no, reaction time 1 h): 42.8%
- Decomposition efficiency: ratio of each glycoside/aglycon within its isoflavone family (Crude diglycosidase; concentrated soybean protein, substrate concentration 10%, heat treatment of enzyme no, reaction time 3 h): 37.3%
- Decomposition efficiency: ratio of each glycoside/aglycon within its isoflavone family (Crude diglycosidase; concentrated soybean protein, substrate concentration 10%, heat treatment of enzyme no, reaction time 6 h): 33.2%
- Decomposition efficiency: ratio of each glycoside/aglycon within its isoflavone family (Crude diglycosidase; concentrated soybean protein, substrate concentration 10%, heat treatment of enzyme yes, reaction time 6 h): 42.8%
- Decomposition efficiency: ratio of each glycoside/aglycon within its isoflavone family (Crude diglycosidase; concentrated soybean protein, substrate concentration 20%, heat treatment of enzyme no, reaction time 0 h): 43.7%
- Decomposition efficiency: ratio of each glycoside/aglycon within its isoflavone family (Crude diglycosidase; concentrated soybean protein, substrate concentration 20%, heat treatment of enzyme no, reaction time 1 h): 47.0%
- Decomposition efficiency: ratio of each glycoside/aglycon within its isoflavone family (Crude diglycosidase; concentrated soybean protein, substrate concentration 20%, heat treatment of enzyme no, reaction time 3 h): 44.6%
- Decomposition efficiency: ratio of each glycoside/aglycon within its isoflavone family (Crude diglycosidase; concentrated soybean protein, substrate concentration 20%, heat treatment of enzyme no, reaction time 6 h): 42.3%
- Decomposition efficiency: ratio of each glycoside/aglycon within its isoflavone family (Crude diglycosidase; concentrated soybean protein, substrate concentration 20%, heat treatment of enzyme yes, reaction time 6 h): 43.2%
- Decomposition efficiency: ratio of each glycoside/aglycon within its isoflavone family (Crude diglycosidase; concentrated soybean protein, substrate concentration 30%, heat treatment of enzyme no, reaction time 0 h): 43.5%
- Decomposition efficiency: ratio of each glycoside/aglycon within its isoflavone family (Crude diglycosidase; concentrated soybean protein, substrate concentration 30%, heat treatment of enzyme no, reaction time 1 h): 65.3%
- Decomposition efficiency: ratio of each glycoside/aglycon within its isoflavone family (Crude diglycosidase; concentrated soybean protein, substrate concentration 30%, heat treatment of enzyme no, reaction time 3 h): 61.0%
- Decomposition efficiency: ratio of each glycoside/aglycon within its isoflavone family (Crude diglycosidase; concentrated soybean protein, substrate concentration 30%, heat treatment of enzyme no, reaction time 6 h): 55.9%
- Decomposition efficiency: ratio of each glycoside/aglycon within its isoflavone family (Crude diglycosidase; concentrated soybean protein, substrate concentration 30%, heat treatment of enzyme yes, reaction time 6 h): 42.4%
- Decomposition efficiency: ratio of each glycoside/aglycon within its isoflavone family (Crude diglycosidase; roasted soy flour, substrate concentration 2%, heat treatment of enzyme no, reaction time 0 h): 44.7%
- Decomposition efficiency: ratio of each glycoside/aglycon within its isoflavone family (Crude diglycosidase; roasted soy flour, substrate concentration 2%, heat treatment of enzyme no, reaction time 1 h): 10.6%
- Decomposition efficiency: ratio of each glycoside/aglycon within its isoflavone family (Crude diglycosidase; roasted soy flour, substrate concentration 2%, heat treatment of enzyme no, reaction time 3 h): 5.0%
- Decomposition efficiency: ratio of each glycoside/aglycon within its isoflavone family (Crude diglycosidase; roasted soy flour, substrate concentration 2%, heat treatment of enzyme no, reaction time 6 h): 1.5%
- Decomposition efficiency: ratio of each glycoside/aglycon within its isoflavone family (Crude diglycosidase; roasted soy flour, substrate concentration 2%, heat treatment of enzyme yes, reaction time 6 h): 45.0%
- Decomposition efficiency: ratio of each glycoside/aglycon within its isoflavone family (Crude diglycosidase; roasted soy flour, substrate concentration 5%, heat treatment of enzyme no, reaction time 0 h): 44.7%
- Decomposition efficiency: ratio of each glycoside/aglycon within its isoflavone family (Crude diglycosidase; roasted soy flour, substrate concentration 5%, heat treatment of enzyme no, reaction time 1 h): 22.1%
- Decomposition efficiency: ratio of each glycoside/aglycon within its isoflavone family (Crude diglycosidase; roasted soy flour, substrate concentration 5%, heat treatment of enzyme no, reaction time 3 h): 15.2%
- Decomposition efficiency: ratio of each glycoside/aglycon within its isoflavone family (Crude diglycosidase; roasted soy flour, substrate concentration 5%, heat treatment of enzyme no, reaction time 6 h): 9.2%
- Decomposition efficiency: ratio of each glycoside/aglycon within its isoflavone family (Crude diglycosidase; roasted soy flour, substrate concentration 5%, heat treatment of enzyme yes, reaction time 6 h): 44.7%
- Decomposition efficiency: ratio of each glycoside/aglycon within its isoflavone family (Crude diglycosidase; roasted soy flour, substrate concentration 10%, heat treatment of enzyme no, reaction time 0 h): 38.2%
- Decomposition efficiency: ratio of each glycoside/aglycon within its isoflavone family (Crude diglycosidase; roasted soy flour, substrate concentration 10%, heat treatment of enzyme no, reaction time 1 h): 33.3%
- Decomposition efficiency: ratio of each glycoside/aglycon within its isoflavone family (Crude diglycosidase; roasted soy flour, substrate concentration 10%, heat treatment of enzyme no, reaction time 3 h): 25.3%
- Decomposition efficiency: ratio of each glycoside/aglycon within its isoflavone family (Crude diglycosidase; roasted soy flour, substrate concentration 10%, heat treatment of enzyme no, reaction time 6 h): 18.7%
- Decomposition efficiency: ratio of each glycoside/aglycon within its isoflavone family (Crude diglycosidase; roasted soy flour, substrate concentration 10%, heat treatment of enzyme yes, reaction time 6 h): 45.9%
- Decomposition efficiency: ratio of each glycoside/aglycon within its isoflavone family (Crude diglycosidase; roasted soy flour, substrate concentration 20%, heat treatment of enzyme no, reaction time 0 h): 46.1%
- Decomposition efficiency: ratio of each glycoside/aglycon within its isoflavone family (Crude diglycosidase; roasted soy flour, substrate concentration 20%, heat treatment of enzyme no, reaction time 1 h): 44.1%
- Decomposition efficiency: ratio of each glycoside/aglycon within its isoflavone family (Crude diglycosidase; roasted soy flour, substrate concentration 20%, heat treatment of enzyme no, reaction time 3 h): 35.8%
- Decomposition efficiency: ratio of each glycoside/aglycon within its isoflavone family (Crude diglycosidase; roasted soy flour, substrate concentration 20%, heat treatment of enzyme no, reaction time 6 h): 28.6%
- Decomposition efficiency: ratio of each glycoside/aglycon within its isoflavone family (Crude diglycosidase; roasted soy flour, substrate concentration 20%, heat treatment of enzyme yes, reaction time 6 h): 46.2%
- Decomposition efficiency: ratio of each glycoside/aglycon within its isoflavone family (Crude diglycosidase; roasted soy flour, substrate concentration 30%, heat treatment of enzyme no, reaction time 0 h): 46.7%
- Decomposition efficiency: ratio of each glycoside/aglycon within its isoflavone family (Crude diglycosidase; roasted soy flour, substrate concentration 30%, heat treatment of enzyme no, reaction time 1 h): 46.6%
- Decomposition efficiency: ratio of each glycoside/aglycon within its isoflavone family (Crude diglycosidase; roasted soy flour, substrate concentration 30%, heat treatment of enzyme no, reaction time 3 h): 41.4%
- Decomposition efficiency: ratio of each glycoside/aglycon within its isoflavone family (Crude diglycosidase; roasted soy flour, substrate concentration 30%, heat treatment of enzyme no, reaction time 6 h): 37.8%
- Decomposition efficiency: ratio of each glycoside/aglycon within its isoflavone family (Crude diglycosidase; roasted soy flour, substrate concentration 30%, heat treatment of enzyme yes, reaction time 6 h): 46.1%
- Decomposition efficiency of genistin family in defatted soybean (Crude diglycosidase; substrate concentration 2%, heat treatment of enzyme no, reaction time 0 h): 1.8
- Decomposition efficiency of genistin family in defatted soybean (Crude diglycosidase; substrate concentration 2%, heat treatment of enzyme no, reaction time 1 h): not detected
- Decomposition efficiency of genistin family in defatted soybean (Crude diglycosidase; substrate concentration 2%, heat treatment of enzyme no, reaction time 3 h): not detected
- Decomposition efficiency of genistin family in defatted soybean (Crude diglycosidase; substrate concentration 2%, heat treatment of enzyme no, reaction time 6 h): not detected
- Decomposition efficiency of genistin family in defatted soybean (Crude diglycosidase; substrate concentration 2%, heat treatment of enzyme yes, reaction time 6 h): 1.5
- Decomposition efficiency of genistin family in defatted soybean (Crude diglycosidase; substrate concentration 5%, heat treatment of enzyme no, reaction time 0 h): 1.9
- Decomposition efficiency of genistin family in defatted soybean (Crude diglycosidase; substrate concentration 5%, heat treatment of enzyme no, reaction time 1 h): 0.8
- Decomposition efficiency of genistin family in defatted soybean (Crude diglycosidase; substrate concentration 5%, heat treatment of enzyme no, reaction time 3 h): 0.5
- Decomposition efficiency of genistin family in defatted soybean (Crude diglycosidase; substrate concentration 5%, heat treatment of enzyme no, reaction time 6 h): 0.3
- Decomposition efficiency of genistin family in defatted soybean (Crude diglycosidase; substrate concentration 5%, heat treatment of enzyme yes, reaction time 6 h): 1.8
- Decomposition efficiency of genistin family in defatted soybean (Crude diglycosidase; substrate concentration 10%, heat treatment of enzyme no, reaction time 0 h): 1.9
- Decomposition efficiency of genistin family in defatted soybean (Crude diglycosidase; substrate concentration 10%, heat treatment of enzyme no, reaction time 1 h): 1.3
- Decomposition efficiency of genistin family in defatted soybean (Crude diglycosidase; substrate concentration 10%, heat treatment of enzyme no, reaction time 3 h): 0.9
- Decomposition efficiency of genistin family in defatted soybean (Crude diglycosidase; substrate concentration 10%, heat treatment of enzyme no, reaction time 6 h): 0.6
- Decomposition efficiency of genistin family in defatted soybean (Crude diglycosidase; substrate concentration 10%, heat treatment of enzyme yes, reaction time 6 h): 1.7
- aglycon ([1]; Reaction time 0 h): 0
- glucoside ([1]; Reaction time 0 h): 100
- aglycon ([1]; Reaction time 1 h): 1.4
- glucoside ([1]; Reaction time 1 h): 98.6
- aglycon ([1]; Reaction time 3 h): 3.3
- glucoside ([1]; Reaction time 3 h): 96.7
- aglycon ([1]; Reaction time 6 h): 6.2
- glucoside ([1]; Reaction time 6 h): 93.8
- aglycon ([2]; Reaction time 0 h): 0
- glucoside ([2]; Reaction time 0 h): 100
- aglycon ([2]; Reaction time 1 h): 99.8
- glucoside ([2]; Reaction time 1 h): 0.2
- aglycon ([2]; Reaction time 3 h): 99.9
- glucoside ([2]; Reaction time 3 h): 0.1
- aglycon ([2]; Reaction time 6 h): 99.8
- glucoside ([2]; Reaction time 6 h): 0.2
